Assay in all cases: inhibition of tumour cell growth, NCI panel, 48 h
The test system of assay [1] is A549 NSCLC.
The test system of assay [2] is SF-539 CNS.
In assay [3] the test system is DU-145 prostate.
In assay [4] the test system is SNB-75 CNS.
Assay [5] deals with SK-MEL-2 melanoma.
Assay [6] has as its system MOLT-4 leukemia.
Assay [7] relates to OVCAR-8 ovarian.
Assay [8] has as its system SK-OV-3 ovarian.
Assay [9] deals with OVCAR-4 ovarian.
Assay [10] deals with NCI-H23 lung.
The test system of assay [11] is HT29 colon.
The test system of assay [12] is MDA-MB-231 breast.

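All cell lines were grown in 96-well plates and treated with compound for 48 hours. TGI: total growth inhibition.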

As to `O=C1Sc2cc3ccccc3cc2C(=O)Sc2ccc(Br)cc21`, the TGI in [1] was 30.9 µM; in [2], 27 µM; in [3] it was 16.9 µM; in assay [4], 13.3 µM; in assay [5], 12.8 µM; in [6], over 31.6 µM. In addition, the TGI in assay [7] amounted to 9.53 µM; in [8] it was 29.3 µM; in assay [9], 35.2 µM; in assay [10] it was 23.3 µM; in [11], 13.1 µM; in assay [12], 12.2 µM.
Turning to `CCOC(=O)NC(Nc1ccc(C)cc1)(C(F)(F)F)C(F)(F)F`, the TGI in assay [1], in assay [2], in assay [3], in [4], in [6] and in assay [7] was over 100 µM each time. Moreover, the TGI in assay [8], in assay [9], in assay [10], in assay [11] and in assay [12] was over 100 µM each time.
With `O=[N+]([O-])c1ccc(CN(CCCl)OCCCl)cc1`, the TGI in assay [1], in assay [2], in assay [3], in assay [4], in assay [5] and in [6] was over 100 µM in each case. For the same compound, the TGI in [7], in assay [8], in assay [9], in assay [10], in assay [11] and in [12] was over 100 µM each time.
`Cc1c(C)c2c(c(N)c1C#N)C(=O)N(NC(=O)c1ccccc1)C2=O`: the TGI in assay [1], in assay [2], in assay [3], in assay [4], in assay [5] and in [6] was over 100 µM each time. Also, the TGI in assay [7], in [9] and in assay [12] was over 100 µM throughout.
Turning to `CCOC(=O)Nc1[nH]cc(-c2ccccc2)c1C#N`, the TGI in assay [1], in [3], in [4], in [5], in assay [6] and in [7] was over 100 µM in each case. In addition, the TGI in assay [8], in assay [9], in assay [10], in [11] and in assay [12] was over 100 µM in each case.
On to `COc1cccc(C(=O)Oc2ccc(OS(=O)(=O)c3ccc(C)cc3)cc2)c1C#N`, for which the TGI in [1], in assay [2], in assay [3], in assay [4], in [5] and in assay [6] was over 100 µM each time. Besides, the TGI in assay [7], in assay [9], in assay [10], in [11] and in [12] was over 100 µM in each case.
For `COC(=O)c1ccc(/C=C/c2cc(O)ccc2O)cc1`, the TGI in assay [1] was over 100 µM; in [2], 6.65 µM; in assay [3] it was over 100 µM; in assay [4], 68.5 µM; in assay [5] it was over 31.6 µM; in [6], 0.927 µM. Besides, the TGI was 18.4 µM in assay [7]; 15.9 µM in assay [9]; over 38.5 µM in assay [10]; over 100 µM in assay [11]; 24 µM in assay [12].
For the compound `NC(N)=NS(=O)(=O)c1ccc(NNc2c3ccccc3nc3c(C(=O)Nc4ccc(S(=O)(=O)Nc5ncccn5)cc4)cccc23)cc1`, the TGI in [1], in [2], in assay [3], in assay [4], in assay [5] and in assay [6] was over 100 µM throughout. Also, the TGI in assay [7] is over 100 µM; in [9], over 100 µM; in assay [10], over 100 µM; in assay [11] it was 54.6 µM; in assay [12], over 100 µM.
On to `CCO/C(O)=C(/C(=N)N1CCOCC1)C(=O)Nc1ccc(F)cc1`, for which the TGI in assay [1], in assay [3], in [4], in [5], in assay [6] and in assay [7] was over 100 µM each time. The TGI in assay [8], in assay [9], in [10], in [11] and in assay [12] was over 100 µM throughout.
Consider `N#Cc1n[nH]n(-c2ccc(Br)cc2)c1=O`, for which the TGI in [1], in [2], in assay [3], in assay [4], in assay [5] and in assay [7] was over 100 µM each time. Also, the TGI in [8], in [9], in assay [10], in assay [11] and in assay [12] was over 100 µM each time.
As to `O=c1oc2ccccc2cc1-c1cc2ccccn2c1`, the TGI in assay [1], in assay [3], in [4], in [5], in assay [6] and in assay [7] was over 100 µM each time. Moreover, the TGI in [8], in assay [9], in [10], in assay [11] and in [12] was over 100 µM throughout.
Turning to `N#CC1C(=S)NC(c2ccccc2)=CC12CCCCC2` (configuration not stated), the TGI is over 100 µM in [1]; over 100 µM in [2]; 61.5 µM in assay [3]; over 100 µM in assay [4]; 55.8 µM in [5]; 53.2 µM in assay [6]. Moreover, the TGI in assay [7] is over 100 µM; in [9], 85.5 µM; in [10], 36.9 µM; in [11], over 100 µM; in [12], over 100 µM.

Source of the values: PubChem BioAssay (NCI).
